# Assay results: US9993478B2, “1-pyrazolyl-3-(4-((2-anilinopyrimidin-4-yl) oxy) napththalen-1-yl) ureas as P38 MAP knase inhibitors” (Respivert Ltd., priority 2011, dated 2018)
# Key:
# A/J mice = test: Cigarette smoke model; format: in vivo; details: tobacco smoke
# Experimental: A/J mice (males, 5 weeks old) were exposed to cigarette smoke (4% cigarette smoke, diluted with air) for 30 min/day for 11 days using a Tobacco Smoke Inhalation Experiment System for small animals (Model SIS-CS; Sibata Scientific Technology, Tokyo, Japan). Test substances were administered intra-nasally (35 μL of solution in 50% DMSO/PBS) once daily for 3 days after the final cigarette smoke exposure. At 12 hr after the last dosing, each of the animals was anesthetized, the trachea cannulated and bronchoalveolar lavage fluid (BALF) was collected. The numbers of alveolar macrophages and neutrophils were determined by FACS analysis (EPICS® ALTRA II, Beckman Coulter, Inc., Fullerton, Calif., USA) using anti-mouse MOMA2 antibody (macrophage) or anti-mouse 7/4 antibody (neutrophil). BALF was centrifuged and the supernatant was collected. The level of keratinocyte chemoattractant (KC; CXCL1) in BALF was quantitated using a Quentikine® mouse KC ELISA kit (R&D systems, Inc., Minneapolis, Minn., USA).
# d-U937 cells = test: Cell viability: MTT assay; format: cell-based, human; details: 1 μg/mL
# How it was run: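 Differentiated U937 cells exposed to compound at 1 or 10 μg/mL final, either 4 h in 5% FCS RPMI1640 or 24 h in 10% FCS RPMI1640. After medium replacement, MTT added 1 h, formazan dissolved in DMSO, A550 read. % viability loss vs 0.5% DMSO vehicle; apparent viability gain shown as negative %.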
SMILES,Macrophage numbers in BALF % inhibition (A/J mice; 0.32 μg/mL intra-nasal) [%],Neutrophil numbers in BALF % inhibition (A/J mice; 0.32 μg/mL intra-nasal) [%],Macrophage numbers in BALF % inhibition (A/J mice; 1.6 μg/mL intra-nasal) [%],Neutrophil numbers in BALF % inhibition (A/J mice; 1.6 μg/mL intra-nasal) [%],Macrophage numbers in BALF % inhibition (A/J mice; 8.0 μg/mL intra-nasal) [%],Neutrophil numbers in BALF % inhibition (A/J mice; 8.0 μg/mL intra-nasal) [%],Macrophage numbers in BALF % inhibition (A/J mice; 40 μg/mL intra-nasal) [%],Neutrophil numbers in BALF % inhibition (A/J mice; 40 μg/mL intra-nasal) [%],MTT Assay Cell viability at time point in d-U937 Cells 4 h (d-U937 cells),MTT Assay Cell viability at time point in d-U937 Cells 24 h (d-U937 cells)
"Cc1ccc(-n2nc(C(C)(C)C)cc2NC(=O)Nc2ccc(Oc3ccnc(Nc4ccccc4)n3)c3ccccc23)cc1 [Example 1, 1-(3-(tert-Butyl)-1-(p-tolyl)-1H-pyrazol-5-yl)-3-(4-(2-(phenylamino)pyrimidin-4-yloxy)naphthalen-1-yl)urea]",11,12,28,29,43,41,64,52,"−ve (−ve and +ve indicate the value is below and above respectively, the no significant effect threshold defined as 30% inhibition at 1 μg/mL at the time point indicated)","−ve (−ve and +ve indicate the value is below and above respectively, the no significant effect threshold defined as 30% inhibition at 1 μg/mL at the time point indicated)"
"Cc1ccc(-n2nc(C(C)(C)C)cc2NC(=O)Nc2ccc(Oc3ccnc(Nc4ccc(O)cc4Cl)n3)c3ccccc23)cc1 [Example 31, 1-(3-(tert-butyl)-1-(p-tolyl)-1H-pyrazol-5-yl)-3-(4-((2-((2-chloro-4-hydroxyphenyl)amino)pyrimidin-4-yl)oxy)naphthalen-1-yl)urea]",,,,,,,,,"−ve (−ve and +ve indicate the value is below and above respectively, the no significant effect threshold defined as 30% inhibition at 1 μg/mL at the time point indicated)","−ve (−ve and +ve indicate the value is below and above respectively, the no significant effect threshold defined as 30% inhibition at 1 μg/mL at the time point indicated)"
"Cc1ccc(-n2nc(C(C)(C)C)cc2NC(=O)Nc2ccc(Oc3ccnc(Nc4ccc(O)cc4O)n3)c3ccccc23)cc1 [Example 32, 1-(3-(tert-butyl)-1-(p-tolyl)-1H-pyrazol-5-yl)-3-(4-((2-((2,4-dihydroxyphenyl)amino)pyrimidin-4-yl)oxy)naphthalen-1-yl)urea]",,,,,,,,,"−ve (−ve and +ve indicate the value is below and above respectively, the no significant effect threshold defined as 30% inhibition at 1 μg/mL at the time point indicated)","−ve (−ve and +ve indicate the value is below and above respectively, the no significant effect threshold defined as 30% inhibition at 1 μg/mL at the time point indicated)"
"COc1ccc(-n2nc(C(C)(C)C)cc2NC(=O)Nc2ccc(Oc3ccnc(Nc4ccc(O)cc4)n3)c3ccccc23)cc1 [Example 33, 1-(3-(tert-butyl)-1-(4-methoxyphenyl)-1H-pyrazol-5-yl)-3-(4-((2-((4-hydroxyphenyl)amino)pyrimidin-4-yl)oxy)naphthalen-1-yl)urea]",,,,,,,,,"−ve (−ve and +ve indicate the value is below and above respectively, the no significant effect threshold defined as 30% inhibition at 1 μg/mL at the time point indicated)","−ve (−ve and +ve indicate the value is below and above respectively, the no significant effect threshold defined as 30% inhibition at 1 μg/mL at the time point indicated)"
"COCC(=O)Nc1cc(Oc2ccc(NC(=O)Nc3cc(C(C)(C)C)nn3-c3ccc(C)cc3)c3ccccc23)ccn1 [Reference Compound, N-(4-(4-(3-(3-tert-butyl-1-p-tolyl-1H-pyrazol-5-yl)ureido)naphthalen-1-yloxy)pyridin-2-yl)-2-methoxyacetamide, reference compound]",,,,,,,,,"−ve (−ve and +ve indicate the value is below and above respectively, the no significant effect threshold defined as 30% inhibition at 1 μg/mL at the time point indicated)","+ve (−ve and +ve indicate the value is below and above respectively, the no significant effect threshold defined as 30% inhibition at 1 μg/mL at the time point indicated)"
